What was measured:
[1] = Partition coefficient (logP butanol/buffer); format: physicochemical; conditions: 1-butanol / 50 mM Tris-HCl, pH 7.4, room temperature
[2] = 1.5 T, 37° C., from Rohrer et al., cited from earlier work; for r1 human plasma: bovine plasma instead of human plasma
[3] = Excretion study in rats (5 days) and residual gadolinium organ distribution (7 days); format: in vivo, rat; conditions: male rats, 0.1 mmol Gd/kg bw i.v.; for Σ organs and carcass: 7 d post injection
Protocol: The excretion and organ distribution of Example 1 and 15 were determined in male rats (Han-Wistar, n=3). The compound was administered as a sterile aqueous solution (50 mmol Gd/L) as a bolus in the tail vein of the animals. The dose was 0.1 mmol Gd/kg bw.
Urine was collected in the following time periods 0-1 h, 1-3 h, 3-6 h, 6-24 h, 1-2 d and 2-5 d post injection […] and feces 0-1 d, 1-2 d and 2-5 d post injection. As a control, 3 animals were treated in the same way with RC1. On day 7 the animals were sacrificed, and the following organs were excised: blood, liver, kidney, spleen, heart, lung, brain, muscle, skin, stomach, gut, bone and bone marrow. The remaining carcass was freeze dried and ground to a fine powder. The Gd concentration in the organs and the carcass was determined by ICP-MS (ICP-MS Agilent 7500a, Waldbronn, Germany). The compounds are excreted via dual pathway (liver and kidney). Less than 1% of the administered dose was present in the body 7 days after the injection.

[4] = Biliary elimination in bile duct cannulated rats; conditions: BDC rats, i.v. bolus
Protocol: All animals are initially anesthetized using a body weight-adjusted intramuscular injection of a mixture (1+2) of xylazine hydrochloride (20 mg/mL, Rompun 2%, Bayer Vital GmbH, Leverkusen) and ketamine hydrochloride (100 mg/mL, Ketavet, Pfizer, Pharmacia GmbH, Berlin) using 1 mL/kg body weight. The continuous anesthesia of the animals is achieved by the intravenous injection of 1.5 mL per hour (Braun perfusor infusion of 1+2, 1:20 saline, xylazine hydrochloride 20 mg/mL, Rompun 2%, Bayer Vital GmbH, Leverkusen and ketamine hydrochloride 100 mg/mL, Ketavet, Pfizer, Pharmacia GmbH, Berlin) via tail vein (Introcan, 24G, yellow). The animals received 0.1 mol Gd/kg bw as intravenous bolus injection via tail vein (50 mmol Gd/L formulation). Bile was sampled 0-0.5 h, 0.5-1 h, 1-2 h, 2-3 h und 3-4 h post injection. […] The bile fractions (n=3 times 10 μL) were dried for 2 h at 90° C. and 50 μL 65% nitric acid (HNO3, Fa. Fisher, Optima Grade #1219010) and 30 μL hydrogen peroxide 30% (H2O2 Fa VWR Chemicals, AnalaR NORMAPUR, #18J024022) were added and processed in microwave oven (5 cycles: 5 min 40 W, 5 min 120 W, 10 min 200 W, 10 min 320 W and 25 min 400 W, Fa. CEM, Mars5 Xpress).

OATP1B1 = biological target: T1, OATP1B1 (Homo sapiens, UniProt Q9Y6L6); test: Uptake into stable transfected OATP1B1 HEK 293 cells; format: cell-based; conditions: for Uptake into OATP1B1-HEK 293 cells: 100 μM, 40 min, relative to RC1
T1 sequence (Q9Y6L6 1-691): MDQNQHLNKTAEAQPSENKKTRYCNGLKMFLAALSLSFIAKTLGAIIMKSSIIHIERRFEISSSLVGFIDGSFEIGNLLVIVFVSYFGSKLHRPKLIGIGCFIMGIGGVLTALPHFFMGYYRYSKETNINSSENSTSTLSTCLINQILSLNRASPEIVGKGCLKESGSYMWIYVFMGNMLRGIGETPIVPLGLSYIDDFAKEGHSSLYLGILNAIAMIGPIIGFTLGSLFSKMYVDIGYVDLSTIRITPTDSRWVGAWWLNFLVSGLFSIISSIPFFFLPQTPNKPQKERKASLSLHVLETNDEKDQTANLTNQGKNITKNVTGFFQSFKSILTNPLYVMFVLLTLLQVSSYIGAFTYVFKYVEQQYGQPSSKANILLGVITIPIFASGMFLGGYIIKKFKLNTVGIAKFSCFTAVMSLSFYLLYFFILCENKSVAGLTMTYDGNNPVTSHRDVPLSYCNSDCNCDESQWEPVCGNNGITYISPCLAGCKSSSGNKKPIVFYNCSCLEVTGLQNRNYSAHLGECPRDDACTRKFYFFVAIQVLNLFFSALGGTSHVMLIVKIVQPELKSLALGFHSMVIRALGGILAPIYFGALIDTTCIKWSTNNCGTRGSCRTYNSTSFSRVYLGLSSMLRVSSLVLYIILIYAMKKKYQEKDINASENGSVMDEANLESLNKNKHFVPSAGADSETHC
Protocol: Cryopreserved cells were shortly thawed in water bath and diluted in 10 mL warm culture medium (37° C.). After medium change the cells were grown for 3 d in a 25 cm^2 cell culture flask. After 3 to 5 d the cells were transferred into 75 cm^2 flasks. […] All test items were prepared in transport buffer at a final concentration of 100 μM from stock solutions (180 to 500 mM concentration). The OATP1B1 HEK 293 cells were incubated with test solutions (test item in transport buffer 500 μL) for 40 min on a thermoshaker without shaking (PHMP, Fa. Grant Bio). Triplicates were performed for each test item. After incubation the cells were washed with 2 mL of cold PBS (+) buffer (Dulbeccos PBS+, Fa. Gibco). The OATP1B1 HEK 293 cells were lysed by addition of 500 μL cold 0.01% Triton-X 100 in Millipore water for 1 h. […] After 1 h 500 μL of 1 nM Terbium ICP-MS standard was added in 2% nitric acid and 0.01% Triton 100.

[5] = cited from earlier work
[6] = Water solubility in aqueous buffer; format: physicochemical; conditions: aqueous buffer 10 mM Tris-HCl, pH 7.4, 20° C.
Protocol: The solid compounds were added stepwise to the buffer solution.
More substance is added once all the suspended material is dissolved until an equilibrium between undissolved and dissolved substance is reached. The suspension was mixed using a shaker (Heidolph Reax 2000) and treated 5 mn in an ultrasound bath (Bandelin, Sonorex Super RK255H).

[7] = Complex stability (transmetallation with Zn2+); format: physicochemical; conditions: 72 hours, 2.5 mM Zn^2+, 26 mM phosphate buffer, 37° C., pH 7.4
Description: If test compounds are instable under these conditions, transmetallation during this test would lead to the formation of the Zn^2+ complex of the test item, while Gd^3+ is released and precipitated as highly insoluble GdPO4.

[8] = test system: freshly isolated rat hepatocytes; test: Uptake into freshly isolated rat hepatocytes; format: cell-based
Protocol: After incubation the adherent hepatocytes were washed once with 37° C. Hepes carbonate transport buffer (500 μL/well). The test items and RC1 were prepared from stock solutions (180 to 500 mM concentration) in Hepes carbonate transport buffer at pH 7.4 to reach a final concentration of 100 μmol Gd/L. The specific uptake of the test item or RC1 into rat hepatocytes via OATP1B1 and OATP1B3 was challenged using a known OATP1B1/1B3 inhibitor (Rifampicine, Fa. Sigma R3501, test item and inhibitor 1:1 each 100 μM final concentration). The prepared rat hepatocyte plates were incubated with test solutions (500 μL/well) at 37° C. for 10 min using a thermoshaker (Fa. Grant Bio, PHMP). Triplicates were performed for each test item. After incubating the cells were washed once with cold PBS buffer (Fa. Gibco, Dulbeccos PBS (+)). After washing the intact hepatocytes were lysed by addition of 500 μL cold 0.01% Triton-X 100 in Millipore water for 1 h. […] As a reference standard RC1 is used in the same well plate. The hepatocyte uptake of the test compound is calculated relative to RC1 (resulting in the unit % of RC1).

OATP1B3 = biological target: T2, OATP1B3 (Homo sapiens, UniProt Q9NPD5); test: Uptake into stable transfected OATP1B3 HEK 293 cells; format: cell-based
T2 sequence (Q9NPD5 1-702): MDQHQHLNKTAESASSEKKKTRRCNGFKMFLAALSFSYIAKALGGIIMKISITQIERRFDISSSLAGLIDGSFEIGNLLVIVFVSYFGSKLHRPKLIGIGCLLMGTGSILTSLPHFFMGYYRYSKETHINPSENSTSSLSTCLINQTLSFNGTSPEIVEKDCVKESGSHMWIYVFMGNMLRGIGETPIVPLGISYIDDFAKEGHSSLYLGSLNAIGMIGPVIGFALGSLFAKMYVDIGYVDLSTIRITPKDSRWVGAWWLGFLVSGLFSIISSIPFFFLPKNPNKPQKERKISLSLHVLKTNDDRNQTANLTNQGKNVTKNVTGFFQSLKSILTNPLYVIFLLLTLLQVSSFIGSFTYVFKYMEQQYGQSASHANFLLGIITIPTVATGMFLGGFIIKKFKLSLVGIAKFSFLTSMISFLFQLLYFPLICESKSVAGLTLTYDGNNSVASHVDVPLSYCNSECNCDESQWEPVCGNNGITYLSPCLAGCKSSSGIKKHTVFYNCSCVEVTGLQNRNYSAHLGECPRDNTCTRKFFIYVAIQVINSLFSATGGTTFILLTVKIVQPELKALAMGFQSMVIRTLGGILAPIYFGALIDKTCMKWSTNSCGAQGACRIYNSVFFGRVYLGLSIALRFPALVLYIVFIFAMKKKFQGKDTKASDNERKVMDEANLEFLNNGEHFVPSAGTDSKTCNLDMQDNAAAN

[9] = In vivo pharmacokinetics following i.v. administration in rat; conditions: i.v. bolus, dose 100 μmol/kg bw
Protocol: Pharmacokinetic parameters of Example 1 and 15 and were determined in male and female rats (Han-Wistar, n=4). […] The samples were digested using strong acidic and oxidizing conditions at elevated temperature following dilution in 1% nitric acid to bring the samples in the quantification range of the method. The lower limit of quantitation amounts to 1 nmol/L for all elements and the upper limit to 1000 nmol/L in the diluted sample.
The fit of the obtained data to a three-compartment model (Phoenix, WinNonlin 6.4, 3-compartment mode) yielded the pharmacokinetic parameters which are shown in Table 8.

## O=C([O-])CN1CCN(CC(=O)[O-])CCN([C@H](CO)[C@H](O)CO)CCN(CC(=O)[O-])CC1.[Gd+3] (racemic) [RC3, gadobutrol, reference compound]
[1]
  Log P (butanol/buffer): −2.22
[2]
  r1 human plasma: 5.2 L/mmol/s

## CCOc1ccc(CCOCC(C(=O)O)N2CCN(CC(=O)[O-])CCN(CC(=O)[O-])CCN(CC(=O)[O-])CC2)cc1.[Gd+3] (centres unmarked) [Example 1, gadolinium 2,2′,2″-(10-{1-carboxy-2-[2-(4-ethoxyphenyl)ethoxy]ethyl}-1,4,7,10-tetraazacyclododecane-1,4,7-triyl)triacetate]
[3]; 0-1 h post injection
  Excretion Urine: 39.8 ± 6.8% Dose
[3]; 0-1 d post injection
  Excretion Feces: 55.6 ± 5.6% Dose
[3]; 1-3 h post injection
  Excretion Urine: 40.3 ± 6.8% Dose
[3]; 1-2 d post injection
  Excretion Feces: 56.9 ± 6.6% Dose
  Excretion Urine: 40.9 ± 7.4% Dose
[3]; 2-5 d post injection
  Excretion Feces: 57.0 ± 6.6% Dose
  Excretion Urine: 40.9 ± 7.4% Dose
[3]; 3-6 h post injection
  Excretion Urine: 40.3 ± 6.8% Dose
[3]; 6-24 h post injection
  Excretion Urine: 40.8 ± 7.4% Dose
[3]
  Σ organs and carcass: 0.65 ± 0.07% Dose
  Total recovery: 98.6 ± 2.1% Dose
[1]
  Log P (butanol/buffer): −0.98
[4]; bile fraction 0-0.5 h
  Biliary excretion, Mean ± SD (cumulative): 55.5 ± 1.7% of injected dose
[4]; bile fraction 0.5-1 h
  Biliary excretion, Mean ± SD (cumulative): 62.6 ± 0.7% of injected dose
[4]; bile fraction 1-2 h
  Biliary excretion, Mean ± SD (cumulative): 65.1 ± 1.3% of injected dose
[4]; bile fraction 2-3 h
  Biliary excretion, Mean ± SD (cumulative): 65.6 ± 1.6% of injected dose
[4]; bile fraction 3-4 h
  Biliary excretion, Mean ± SD (cumulative): 65.8 ± 1.7% of injected dose

## CCOCCOCCOc1ccc(CCCC(C(=O)O)N2CCN(CC(=O)[O-])CCN(CC(=O)[O-])CCN(CC(=O)[O-])CC2)cc1.[Gd+3] (centres unmarked) [Example 25, gadolinium 2,2′,2″-{10-[1-carboxy-4-{4-[2-(2-ethoxyethoxy)ethoxy]phenyl}butyl]-1,4,7,10-tetraazacyclododecane-1,4,7-triyl}triacetate]
OATP1B1
  Uptake into OATP1B1-HEK 293 cells: 301 % of RC1
[1]
  Log P (butanol/buffer): −1.00

## O=C([O-])CN(CCN(CC(=O)[O-])CC(=O)[O-])CCN(CC(=O)[O-])C(COCc1ccccc1)C(=O)[O-].[Gd+3].[H+].[H+] (centres unmarked) [Gd-BOPTA, gadobenic acid]
[5]; Seale et al. 2009
  secreted into the bile: 3-to-5%

## CCOc1ccc(C[C@@H](CN(CCN(CC(=O)[O-])CC(=O)[O-])CC(=O)[O-])N(CC(=O)[O-])CC(=O)[O-])cc1.[Gd+3].[H+].[H+] [Gd-EOB-DTPA, gadoxetic acid]
[5]; in vivo
  excreted into the bile: up to 50 % of the administered dose

## CCOc1ccc(C[C@@H](CN(CCN(CC(=O)[O-])CC(=O)[O-])CC(=O)[O-])N(CC(=O)[O-])CC(=O)[O-])cc1.[Gd+3].[H+].[H+] [RC1, Gd-EOB-DTPA]
[6]
  Solubility: >250 mM
[7]
  Transmetallation stability: 44%
[8]; 100 μmol Gd/L, 10 min, 37° C., relative to RC1
  Uptake rat hepatocytes: 100 % of RC1
[8]; test item and Rifampicine 1:1 each 100 μM
  Inhibition Rifampicine: 97 % inhibition
OATP1B1
  Uptake into OATP1B1-HEK 293 cells: 100 % of RC1
OATP1B1; OATP1B1-HEK 293 cells
  Inhibition Rifampicine: 81 % inhibition
OATP1B3; 100 μM, 40 min, relative to RC1
  Uptake into OATP1B3-HEK 293 cells: 100 % of RC1
OATP1B3; OATP1B3-HEK 293 cells
  Inhibition Rifampicine: 99 % inhibition
[9]
  AUCnorm Area under the curve: 0.40 kg·h/L
  Clplasma Plasma clearance: 40 mL/min/kg
  Vss Volume of distribution at steady state: 0.9 L/kg
  t½ α Half-life, compartment V1: 2 min
  t½ β Half-life, compartment V2: 8 min
  t½ γ Half-life, compartment V3: 390 min
[3]; 0-1 h post injection
  Excretion Urine: 23.2 ± 1.6% Dose
[3]; 0-1 d post injection
  Excretion Feces: 77.5 ± 2.7% Dose
[3]; 1-3 h post injection
  Excretion Urine: 23.5 ± 1.5% Dose
[3]; 1-2 d post injection
  Excretion Feces: 80.6 ± 2.9% Dose
  Excretion Urine: 23.7 ± 1.5% Dose
[3]; 2-5 d post injection
  Excretion Feces: 80.8 ± 2.9% Dose
  Excretion Urine: 23.7 ± 1.5% Dose
[3]; 3-6 h post injection
  Excretion Urine: 23.6 ± 1.5% Dose
[3]; 6-24 h post injection
  Excretion Urine: 23.7 ± 1.5% Dose
[3]
  Σ organs and carcass: 0.14 ± 0.08% Dose
  Total recovery: 104.6 ± 2.4% Dose
[1]
  Log P (butanol/buffer): −2.12
[2]
  r1 human plasma: 5.2 L/mmol/s
[2]; water
  r1 water: 3.3 L/mmol/s

## O=C([O-])CN(CCN(CC(=O)[O-])CC(=O)[O-])CCN(CC(=O)[O-])C(COCc1ccccc1)C(=O)[O-].[Gd+3] (centres unmarked) [RC2, Gd-BOPTA, reference compound]
[1]
  Log P (butanol/buffer): −2.07
[2]
  r1 human plasma: 4.1 L/mmol/s
